Test results from PMC3568987 (ACS medicinal chemistry letters, 2012).

Key:
[1] = test system: rat hepatocytes; assay: Hepatocyte intrinsic clearance; assay type: in vitro ADME
[2] = test system: human hepatocytes; assay: Hepatocyte intrinsic clearance; assay type: in vitro ADME

intrinsic clearance [1]: 4.9 μL.min^−1 ·10^6 cells
intrinsic clearance [2]: 2.7 μL.min^−1 ·10^6 cells
Structure (SMILES): CC#Cc1cncc(-c2cc(Cl)c([C@]3(C)CC(=O)N(C)C(=N)N3)s2)c1 [Compound 16]
